#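 Results reflect a 48-hour exposure of cells in 96-well plates to compound at five concentrations. Abbreviation: GI50, concentration required for 50% inhibition of growth.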 The source made the active and inactive calls. No stated cut-off is given here; in the data, active = GI50 up to about 1.1 µM and inactive = higher.
# Columns and labels:
# Test in all cases: DTP human tumour cell line panel, 48 h
# [1] = system: HT-29
# [2] = system: HCT-116
# [3] = system: SK-MEL-28
# [4] = system: OVCAR-8
# [5] = system: NCI-H23
# [6] = system: MCF7
# [7] = system: BT-549
# [8] = system: HOP-62
# [9] = system: RPMI-8226
# [10] = system: UACC-62
# [11] = system: SW-620
# [12] = system: SF-295
# [13] = system: PC-3
# [14] = system: SK-OV-3
# [15] = system: NCI-H522
# [16] = system: OVCAR-4
# [17] = system: UACC-257
# [18] = system: HOP-92
# [19] = system: SK-MEL-5
# [20] = system: RXF 393
Compound,GI50 [1],GI50 [2],GI50 [3],GI50 [4],GI50 [5],GI50 [6],GI50 [7],GI50 [8],GI50 [9],GI50 [10],GI50 [11],GI50 [12],GI50 [13],GI50 [14],GI50 [15],GI50 [16],GI50 [17],GI50 [18],GI50 [19],GI50 [20]
C=C(C)C(=O)CC[C@@H](C)[C@H]1[C@@H](OC2OC(CO)C(O)C(O)C2O)C[C@@]2(C)[C@@H]3C[C@H](O)C4C(C)(C)[C@@H](OC5OC(CO)C(O)C(O)C5O)CC[C@@]45C[C@@]35CC[C@]12C (some centres not stated),> 100 µM (inactive),> 100 µM (inactive),> 100 µM (inactive),> 100 µM (inactive),87.3 µM (inactive),> 100 µM (inactive),36.6 µM (inactive),> 100 µM (inactive),> 100 µM (inactive),> 100 µM (inactive),> 100 µM (inactive),71.6 µM (inactive),> 100 µM (inactive),> 100 µM (inactive),80.4 µM (inactive),> 100 µM (inactive),> 100 µM (inactive),> 100 µM (inactive),46.6 µM (inactive),–
Cc1ccc(S(=O)(=O)NC(=O)NC2=NC(C)(C)N(c3ccc(Cl)c(Cl)c3)C(N)=N2)cc1,28.7 µM (inactive),3.72 µM (inactive),> 100 µM (inactive),9.89 µM (inactive),11.4 µM (inactive),25.8 µM (inactive),> 100 µM (inactive),7.59 µM (inactive),–,7.59 µM (inactive),4.66 µM (inactive),41.5 µM (inactive),0.552 µM (active),> 100 µM (inactive),> 100 µM (inactive),> 100 µM (inactive),36 µM (inactive),–,18.3 µM (inactive),66.7 µM (inactive)
COc1ccc2c(c1)c(=O)c1c(NCCN(C)C)ccc3c(=O)n(CCN(C)C)c(=O)n2c31,0.0197 µM (active),< 0.014 µM (active),0.383 µM (active),0.0601 µM (active),0.11 µM (active),0.0368 µM (active),0.764 µM (active),0.0711 µM (active),0.0323 µM (active),0.156 µM (active),< 0.0105 µM (active),0.0853 µM (active),0.0925 µM (active),0.55 µM (active),0.0762 µM (active),0.101 µM (active),0.166 µM (active),0.0483 µM (active),0.126 µM (active),–
CC(/C=C/C(O)=C1/C(=O)CNC1=O)=C\[C@@H](C)[C@H]1O[C@@]2(C)O[C@H](C(=O)[C@@H]3O[C@@]32C)[C@@H]1C,21.9 µM (inactive),18.9 µM (inactive),17.6 µM (inactive),20.2 µM (inactive),23.5 µM (inactive),19.7 µM (inactive),15.8 µM (inactive),22.2 µM (inactive),12.2 µM (inactive),16.7 µM (inactive),29.8 µM (inactive),–,14 µM (inactive),21.5 µM (inactive),–,–,15.3 µM (inactive),–,17.5 µM (inactive),1.14 µM (inactive)
Nc1nc2ncc(SCc3ccc(C(=O)NC(CCC(=O)O)C(=O)O)cc3)cc2c(=O)[nH]1 (configuration not stated),> 100 µM (inactive),> 100 µM (inactive),> 100 µM (inactive),> 100 µM (inactive),> 100 µM (inactive),> 100 µM (inactive),> 100 µM (inactive),> 100 µM (inactive),19.4 µM (inactive),> 100 µM (inactive),> 100 µM (inactive),> 100 µM (inactive),> 100 µM (inactive),> 100 µM (inactive),> 100 µM (inactive),> 100 µM (inactive),> 100 µM (inactive),> 100 µM (inactive),> 100 µM (inactive),–
O=C(OCc1ccccc1)N1CCN(C(=O)OCc2ccccc2)CCN(C(=O)OCc2ccccc2)CCN(C(=O)OCc2ccccc2)CCN(C(=O)OCc2ccccc2)CC1,–,> 100 µM (inactive),> 100 µM (inactive),> 100 µM (inactive),–,> 100 µM (inactive),> 100 µM (inactive),65 µM (inactive),–,> 100 µM (inactive),> 100 µM (inactive),> 100 µM (inactive),> 100 µM (inactive),> 100 µM (inactive),68.2 µM (inactive),57.4 µM (inactive),26.7 µM (inactive),70.5 µM (inactive),18.4 µM (inactive),–
Cc1ccc([S+]([O-])c2cccs2)cc1 (configuration not stated),> 100 µM (inactive),> 100 µM (inactive),> 100 µM (inactive),> 100 µM (inactive),> 100 µM (inactive),> 100 µM (inactive),> 100 µM (inactive),> 100 µM (inactive),> 100 µM (inactive),–,> 100 µM (inactive),> 100 µM (inactive),> 100 µM (inactive),–,–,–,> 100 µM (inactive),> 100 µM (inactive),–,> 100 µM (inactive)
